Among the data in patent publication US20240409585A1, “MACROCYCLIC IMMUNOMODULATORS” (priority 2021, published 2024) are IC50 values, retold here.

In this assay the target is T1, PE-labeled human PD-L1-Ig binding to Jurkat cell line over-expressing human PD-1 (Jurkat-PD-1) (Homo sapiens, UniProt Q15116).
T1 construct: expressed in transfected cells; host or cells: Jurkat
Kind of assay: Jurkat-PD-1 Cell Binding High-Content Screening Assay (CBA): Method 1. The note with it: Jurkat-hPD-1 cells, PE-labeled PD-L1-Ig 20 nM final; read-out: Jurkat HPDL1 PD1 IC50 (uM) (Method 1).

Bridge positions count the residues as written; N and C are the ends. Square brackets hold non-standard residues; d marks the D form. Peptide text beside a SMILES is read from it. * marks the point of attachment. ξ: configuration not given here. Tyr(3-NO2) = N[C@@H](Cc1ccc(O)c([N+](=O)[O-])c1)C(=O)O; Phe(4-COOH) = N[C@@H](Cc1ccc(C(=O)O)cc1)C(=O)O; Bip = N[C@@H](Cc1ccc(-c2ccccc2)cc1)C(=O)O; Phe(3-OMe) = COc1cccc(C[C@H](N)C(=O)O)c1; Phe(3-Me) = Cc1cccc(C[C@H](N)C(=O)O)c1; Nva(4-oxo) = CC(=O)C[C@H](N)C(=O)O; Val(3-OH) = CC(C)(O)[C@H](N)C(=O)O; 2Pal = N[C@@H](Cc1ccccn1)C(=O)O; 4Pal = N[C@@H](Cc1ccncc1)C(=O)O; Cha = N[C@@H](CC1CCCCC1)C(=O)O; Cit = NC(=O)NCCC[C@H](N)C(=O)O; Thr(3ξ) = CC(O)[C@H](N)C(=O)O; Pen = CC(C)(S)[C@H](N)C(=O)O; Carboxymethyl = O=C(O)C*; NMeA = CN[C@@H](C)C(=O)O; Orn = NCCC[C@H](N)C(=O)O; Pra = C#CC[C@H](N)C(=O)O; dNMeA = CN[C@H](C)C(=O)O; Dab = NCC[C@H](N)C(=O)O; Dap = NC[C@H](N)C(=O)O

T1 sequence (Q15116 25-288): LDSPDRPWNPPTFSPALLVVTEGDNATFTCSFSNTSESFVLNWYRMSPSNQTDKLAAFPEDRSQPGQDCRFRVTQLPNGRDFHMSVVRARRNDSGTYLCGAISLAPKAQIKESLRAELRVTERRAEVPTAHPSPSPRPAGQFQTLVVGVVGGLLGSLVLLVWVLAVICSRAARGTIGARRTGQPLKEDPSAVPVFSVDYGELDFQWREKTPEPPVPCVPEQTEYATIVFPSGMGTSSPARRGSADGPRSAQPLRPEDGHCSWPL

On to `CCC(C)[C@@H]1NC(=O)[C@H](Cc2ccc(-c3ccccc3)cc2)NC(=O)[C@H](C(C)C)NC(=O)[C@H](Cc2c[nH]c3ccccc23)NC(=O)[C@H](CC(=O)O)NC(=O)[C@H](Cc2ccc(C(=O)O)cc2)NC(=O)[C@H](Cc2ccc(OCC(=O)O)cc2)NC(=O)CSC[C@@H](C(=O)N[C@@H](CCC(=O)O)C(=O)N[C@H](C(N)=O)C(=O)O)NC(=O)[C@H](CO)NC(=O)[C@H](C(C)C)NC(=O)[C@H](CC2CCCCC2)NC(=O)[C@H](CC(N)=O)NC(=O)[C@@H](CC(C)C)NC(=O)[C@H](C)N(C)C1=O` (stereo partly drawn) [Compound 2008], for which the IC50 worked out at 0.04 µM.

As to `CC(=O)C[C@@H]1NC(=O)[C@H](Cc2ccc(OCC(=O)O)cc2)NC(=O)[C@H](Cc2ccccc2)NC(=O)CSC[C@@H](C(=O)N[C@@H](C)C(=O)N[C@@H](CCCCN)C(N)=O)NC(=O)[C@H](CO)NC(=O)[C@H](C(C)C)NC(=O)[C@H](CC(C)C)NC(=O)[C@H](CC(N)=O)NC(=O)[C@@H](CC(C)C)NC(=O)[C@H](C)N(C)C(=O)[C@H](C(C)C)NC(=O)[C@H](Cc2ccc(-c3ccccc3)cc2)NC(=O)[C@H](CC(C)C)NC(=O)[C@H](Cc2c[nH]c3ccccc23)NC1=O` [Compound 2013] ({CH2CO}-FY(Carboxymethyl)[Nva(4-oxo)]WL[Bip]V[NMeA][dL]NLVSCAK-NH2; thioether N-14), the concentration for half-maximal inhibition (IC50) stood at 0.01 µM. Then `CC(C)C[C@@H]1NC(=O)[C@H](Cc2c[nH]c3ccccc23)NC(=O)[C@H](CC(=O)O)NC(=O)[C@H](Cc2ccncc2)NC(=O)[C@H](Cc2ccc(OCC(=O)O)cc2)NC(=O)CSC[C@@H](C(=O)N[C@@H](CCN)C(N)=O)NC(=O)[C@H](CO)NC(=O)[C@H](C(C)C)NC(=O)[C@H](CC2CCCCC2)NC(=O)[C@H](CCN)NC(=O)[C@@H](CC(C)C)NC(=O)[C@H](C)N(C)C(=O)[C@H](C(C)C)NC(=O)[C@H](Cc2ccc(-c3ccccc3)cc2)NC1=O` [Compound 1905] ({CH2CO}-Y(Carboxymethyl)[4Pal]DWL[Bip]V[NMeA][dL][Dab][Cha]VSC[Dab]-NH2; thioether N-14), with 0.01 µM; and `Cc1cccc(C[C@@H]2NC(=O)[C@H](CC(=O)O)NC(=O)[C@H](Cc3ccc(OCC(=O)O)cc3)NC(=O)[C@H](Cc3ccncc3)NC(=O)CSC[C@@H](C(=O)NCC(N)=O)NC(=O)[C@H](CO)NC(=O)[C@H](C(C)C)NC(=O)[C@H](CC(C)C)NC(=O)[C@H](CC(N)=O)NC(=O)[C@@H](CC(C)C)NC(=O)[C@H](C)N(C)C(=O)[C@H](C(C)C)NC(=O)[C@H](Cc3ccc(-c4ccccc4)cc3)NC(=O)[C@H](CC(C)C)NC2=O)c1` [Compound 1557] ({CH2CO}-[4Pal]Y(Carboxymethyl)D[Phe(3-Me)]L[Bip]V[NMeA][dL]NLVSCG-NH2; thioether N-14), with 0.01 µM; and `Cc1cccc(C[C@@H]2NC(=O)[C@H](CC(=O)O)NC(=O)[C@H](Cc3ccc(OCC(=O)O)cc3)NC(=O)[C@H](CN)NC(=O)CSC[C@@H](C(=O)N[C@@H](CCN)C(N)=O)NC(=O)[C@H](CCCN)NC(=O)[C@H](C(C)C)NC(=O)[C@H](CC3CCCCC3)NC(=O)[C@H](CCN)NC(=O)[C@@H](C)NC(=O)[C@H](C)N(C)C(=O)[C@H](Cc3ccc(O)cc3)NC(=O)[C@H](Cc3ccc(-c4ccccc4)cc3)NC(=O)[C@H](Cc3ccc(O)cc3)NC2=O)c1` [Compound 1875] ({CH2CO}-[Dap]Y(Carboxymethyl)D[Phe(3-Me)]Y[Bip]Y[NMeA][dA][Dab][Cha]V[Orn]C[Dab]-NH2; thioether N-14), with 0.05 µM. Regarding `CC(C)C[C@@H]1NC(=O)[C@H](Cc2c[nH]c3ccccc23)NC(=O)[C@H](CC(=O)O)NC(=O)[C@H](Cc2ccc(O)cc2)NC(=O)[C@H](Cc2ccccc2)NC(=O)CSC[C@@H](C(=O)N[C@@H](C)C(N)=O)NC(=O)[C@H](C(C)O)NC(=O)[C@H](CCN)NC(=O)[C@H](CC(C)C)NC(=O)[C@H](CC(N)=O)NC(=O)[C@@H](C)NC(=O)[C@H](C)N(C)C(=O)[C@H](C(C)C)NC(=O)[C@H](Cc2ccc(-c3ccccc3)cc2)NC1=O` (stereo partly drawn) [Compound 1534] ({CH2CO}-FYDWL[Bip]V[NMeA][dA]NL[Dab][Thr(3ξ)]CA-NH2; thioether N-14), the IC50 is 0.49 µM. With `C#CC[C@H](NC(=O)[C@@H](C)NC(=O)[C@@H]1CSCC(=O)N[C@@H](Cc2c[nH]cn2)C(=O)N[C@@H](Cc2ccc(OCC(=O)O)cc2)C(=O)N[C@@H](CC(=O)O)C(=O)N[C@@H](Cc2c[nH]c3ccccc23)C(=O)N[C@@H](C(C)C)C(=O)N[C@@H](Cc2ccc(-c3ccccc3)cc2)C(=O)N[C@@H](C(C)C)C(=O)N(C)[C@@H](C)C(=O)N[C@H](CC(C)C)C(=O)N[C@@H](CCN)C(=O)N[C@@H](CC2CCCCC2)C(=O)N[C@@H](C(C)(C)O)C(=O)N[C@@H](CO)C(=O)N1)C(N)=O` [Compound 1942] ({CH2CO}-HY(Carboxymethyl)DWV[Bip]V[NMeA][dL][Dab][Cha][Val(3-OH)]SC[dA][Pra]-NH2; thioether N-14), the IC50 came out at 0.01 µM. The same measure for `CC(C)C[C@@H]1NC(=O)[C@H](Cc2c[nH]c3ccccc23)NC(=O)[C@H](CC(=O)O)NC(=O)[C@H](Cc2ccc(OCC(=O)O)cc2)NC(=O)[C@H](Cc2ccc(OCC(=O)O)cc2)NC(=O)CSC(C)(C)[C@@H](C(N)=O)NC(=O)[C@H](CO)NC(=O)[C@H](C(C)C)NC(=O)[C@H](CC(C)C)NC(=O)[C@H](CCN)NC(=O)[C@@H](CC(C)C)NC(=O)[C@H](C)N(C)C(=O)[C@H](C(C)C)NC(=O)[C@H](Cc2ccc(-c3ccccc3)cc2)NC1=O` [Compound 2260] ({CH2CO}-Y(Carboxymethyl)Y(Carboxymethyl)DWL[Bip]V[NMeA][dL][Dab]LVS[Pen]-NH2; thioether N-14): 0.26 µM; for `COc1cccc(C[C@@H]2NC(=O)[C@H](CC(=O)O)NC(=O)[C@H](Cc3ccc(O)cc3)NC(=O)[C@H](CC(N)=O)NC(=O)CSC[C@@H](C(=O)N[C@@H](C)C(N)=O)NC(=O)[C@H]([C@@H](C)O)NC(=O)[C@H](C(C)C)NC(=O)[C@H](CC(C)C)NC(=O)[C@H](CCN)NC(=O)[C@@H](CC(C)C)NC(=O)[C@H](C)N(C)C(=O)[C@H](C(C)C)NC(=O)[C@H](Cc3ccc(-c4ccccc4)cc3)NC(=O)[C@H](C(C)C)NC2=O)c1` [Compound 1277] ({CH2CO}-NYD[Phe(3-OMe)]V[Bip]V[NMeA][dL][Dab]LVTCA-NH2; thioether N-14): 0.02 µM; for `CC(C)C[C@@H]1NC(=O)[C@H](CCN)NC(=O)[C@@H](CC(C)C)NC(=O)[C@H](C)N(C)C(=O)[C@H](CCCNC(N)=O)NC(=O)[C@H](Cc2ccc(-c3ccccc3)cc2)NC(=O)[C@H](C(C)C)NC(=O)[C@H](Cc2c[nH]c3ccccc23)NC(=O)[C@H](CC(=O)O)NC(=O)[C@H](Cc2ccc(O)c([N+](=O)[O-])c2)NC(=O)[C@H](Cc2ccccn2)NC(=O)CSC[C@@H](C(=O)N[C@@H](C)C(N)=O)NC(=O)[C@H]([C@@H](C)O)NC(=O)[C@H](C(C)C)NC1=O` [Compound 1337] ({CH2CO}-[2Pal][Tyr(3-NO2)]DWV[Bip][Cit][NMeA][dL][Dab]LVTCA-NH2; thioether N-14): 0.28 µM. For `CC(C)C[C@@H]1NC(=O)[C@H](CCN)NC(=O)[C@@H](CC(C)C)NC(=O)[C@H](C)N(C)C(=O)[C@H](Cc2c[nH]c3ccccc23)NC(=O)[C@H](Cc2ccc(-c3ccccc3)cc2)NC(=O)[C@H](C(C)C)NC(=O)[C@H](Cc2c[nH]c3ccccc23)NC(=O)[C@H](CC(=O)O)NC(=O)[C@H](Cc2ccc(O)cc2)NC(=O)[C@H](CC(N)=O)NC(=O)CSC[C@@H](C(=O)N[C@@H](C)C(N)=O)NC(=O)[C@H]([C@@H](C)O)NC(=O)[C@H](C(C)C)NC1=O` [Compound 1263] ({CH2CO}-NYDWV[Bip]W[NMeA][dL][Dab]LVTCA-NH2; thioether N-14), the IC50 was 0.89 µM. Then `CC[C@H](C)[C@@H]1NC(=O)[C@H](Cc2ccc(-c3ccccc3)cc2)NC(=O)[C@H](C(C)C)NC(=O)[C@H](Cc2cccc(C)c2)NC(=O)[C@H](CC(=O)O)NC(=O)[C@H](Cc2ccc(O)cc2)NC(=O)[C@H](CC(N)=O)NC(=O)CSC[C@@H](C(=O)N[C@H](C)C(N)=O)NC(=O)[C@H]([C@@H](C)O)NC(=O)[C@H](C(C)(C)O)NC(=O)[C@H](CC2CCCCC2)NC(=O)[C@H](CCN)NC(=O)[C@@H](CC(C)C)NC(=O)[C@H](C)N(C)C1=O` [Compound 1690] ({CH2CO}-NYD[Phe(3-Me)]V[Bip]I[NMeA][dL][Dab][Cha][Val(3-OH)]TC[dA]-NH2; thioether N-14), with 0.01 µM; and `CC(C)C[C@@H]1NC(=O)[C@H](Cc2c[nH]c3ccccc23)NC(=O)[C@H](CC(=O)O)NC(=O)[C@H](Cc2ccc(O)cc2)NC(=O)[C@H](Cc2ccccc2)NC(=O)CSC[C@@H](C(=O)NCC(N)=O)NC(=O)[C@H](CO)NC(=O)[C@H](C(C)C)NC(=O)[C@H](CC(C)C)NC(=O)[C@H](CC(N)=O)NC(=O)CNC(=O)[C@@H](C)N(C)C(=O)[C@H](C(C)C)NC(=O)[C@H](Cc2ccc(-c3ccccc3)cc2)NC1=O` [Compound 1721] ({CH2CO}-FYDWL[Bip]V[dNMeA]GNLVSCG-NH2; thioether N-14), with 0.24 µM. With `Cc1cccc(C[C@@H]2NC(=O)[C@H](CC(N)=O)NC(=O)CSC[C@@H](C(=O)N[C@@H](C)C(N)=O)NC(=O)[C@H]([C@@H](C)O)NC(=O)[C@H](C(C)C)NC(=O)[C@H](CC(C)C)NC(=O)[C@H](CCN)NC(=O)[C@@H](CC(C)C)NC(=O)[C@H](C)N(C)C(=O)[C@H](CCCNC(N)=O)NC(=O)[C@H](Cc3ccc(-c4ccccc4)cc3)NC(=O)[C@H](C(C)C)NC(=O)[C@H](Cc3c[nH]c4ccccc34)NC(=O)[C@H](CC(=O)O)NC2=O)c1` [Compound 1311] ({CH2CO}-N[Phe(3-Me)]DWV[Bip][Cit][NMeA][dL][Dab]LVTCA-NH2; thioether N-14), the IC50 is 0.05 µM. The same measure for `Cc1cccc(C[C@@H]2NC(=O)[C@H](CC(=O)O)NC(=O)[C@H](Cc3ccc(C(=O)O)cc3)NC(=O)[C@H](Cc3ccncc3)NC(=O)CSC[C@@H](C(=O)N[C@@H](CO)C(N)=O)NC(=O)[C@H](CCC(=O)O)NC(=O)[C@H](C(C)(C)O)NC(=O)[C@H](CC3CCCCC3)NC(=O)[C@H](CCN)NC(=O)[C@@H](CC(C)C)NC(=O)[C@H](C)N(C)C(=O)[C@H](Cc3ccc(OCC(=O)O)cc3)NC(=O)[C@H](Cc3ccc(-c4ccccc4)cc3)NC(=O)[C@H](Cc3ccc(C(=O)O)cc3)NC2=O)c1` [Compound 2195] ({CH2CO}-[4Pal][Phe(4-COOH)]D[Phe(3-Me)][Phe(4-COOH)][Bip]Y(Carboxymethyl)[NMeA][dL][Dab][Cha][Val(3-OH)]ECS-NH2; thioether N-14): 0.08 µM.
